pIC50: −log10 of the molar value. Read-outs that look alike come from different tables or passages of the source.
Key:
MOLT-4 = experiment: Cell viability assay (MTS) in MOLT-4 cells; type: cell-based; details: Homo sapiens, MOLT-4
Protocol: (§1) Acute lymphoblastic leukemia cells (MOLT-4 and RS4; 11) were incubated with increasing concentrations of Bcl-xL degraders for 48 h. Cell viability was measured by tetrazolium-based MTS assay.

RS4; 11 = experiment: Cell viability assay (MTS) in RS4; 11 cells; type: cell-based; design: Anti-Cancer Activity IC50 (48 hr) RS4; 11: scale not given here; details: for pIC50: Homo sapiens, RS4-11
Protocol: as §1

[1] = Table 2, 48 hr, MTS, read-out: Anti-Cancer Activity IC50 (48 hr) MOLT-4
[2] = Table 2, 48 hr, MTS, read-out: Anti-Cancer Activity IC50 (48 hr) RS4, 11
[3] = Table 2A, 48 hr, MTS, read-out: Anti-Cancer Activity IC50 (48 hr) MOLT-4
[4] = Table 2A, 48 hr, MTS, read-out: Anti-Cancer Activity IC50 (48 hr) RS4, 11

SMILES	pIC50 (MOLT-4; [1])	pIC50 (RS4; 11; [2])	other results
Cc1ncsc1-c1ccc([C@H](C)NC(=O)[C@@H]2C[C@@H](O)CN2C(=O)[C@@H](NC(=O)CCCCCCC(=O)N2CCN(CC3(C)CCC(c4ccc(Cl)cc4)=C(CN4CCN(c5ccc(C(=O)NS(=O)(=O)c6ccc(N[C@H](CCN7CCOCC7)CSc7ccccc7)c([N+](=O)[O-])c6)cc5)CC4)C3)CC2)C(C)(C)C)cc1 (stereo partly drawn) [Compound 33, (2S,4R)-1-((2S)-2-(8-(4-((4′-chloro-4-methyl-6-((4-(4-(((4-(((R)-4-morpholino-1-(phenylthio)butan-2-yl)amino)-3-nitrophenyl)sulfonyl)carbamoyl)phenyl)piperazin-1-yl)methyl)-2,3,4,5-tetrahydro-[1,1′-biphenyl]-4-yl)methyl)piperazin-1-yl)-8-oxooctanamido)-3,3-dimethylbutanoyl)-4-hydroxy-N—((S)-1-(4-(4-methylthiazol-5-yl)phenyl)ethyl)pyrrolidine-2-carboxamide]	7.00 to 7.70	> 7.70	–
Cc1ncsc1-c1ccc([C@H](C)NC(=O)[C@@H]2C[C@@H](O)CN2C(=O)[C@@H](NC(=O)CNC(=O)c2ccc(N3CCN(CC4(C)CCC(c5ccc(Cl)cc5)=C(CN5CCN(c6ccc(C(=O)NS(=O)(=O)c7ccc(N[C@H](CCN8CCOCC8)CSc8ccccc8)c(S(=O)(=O)C(F)(F)F)c7)cc6)CC5)C4)CC3)nc2)C(C)(C)C)cc1 (stereo partly shown) [Compound 1]	7.00 to 7.70	6.30 to 7.00	–
CC(=O)N1CCN(CC[C@H](CSc2ccccc2)Nc2ccc(S(=O)(=O)NC(=O)c3ccc(N4CCN(CC5=C(c6ccc(Cl)cc6)CCC(C)(CN6CCN(C(=O)CCCCCCC(=O)N[C@H](C(=O)N7C[C@H](O)C[C@H]7C(=O)N[C@@H](C)c7ccc(-c8scnc8C)cc7)C(C)(C)C)CC6)C5)CC4)cc3)cc2[N+](=O)[O-])CC1 (stereo partly drawn) [Compound 48, (2S,4R)-1-((2S)-2-(8-(4-((6-((4-(4-(((4-(((R)-4-(4-acetylpiperazin-1-yl)-1-(phenylthio)butan-2-yl)amino)-3-nitrophenyl)sulfonyl)carbamoyl)phenyl)piperazin-1-yl)methyl)-4′-chloro-4-methyl-2,3,4,5-tetrahydro-[1,1′-biphenyl]-4-yl)methyl)piperazin-1-yl)-8-oxooctanamido)-3,3-dimethylbutanoyl)-4-hydroxy-N—((S)-1-(4-(4-methylthiazol-5-yl)phenyl)ethyl)pyrrolidine-2-carboxamide]	7.00 to 7.70	> 7.70	–
Cc1ncsc1-c1ccc([C@H](C)NC(=O)[C@@H]2C[C@@H](O)CN2C(=O)[C@@H](NC(=O)CCCCCCC(=O)N2CCN(C[C@]3(C)CCC(c4ccc(Cl)cc4)=C(CN4CCN(c5ccc(C(=O)NS(=O)(=O)c6ccc(N[C@H](CCN7CC8CCC7C8)CSc7ccccc7)c([N+](=O)[O-])c6)cc5)CC4)C3)CC2)C(C)(C)C)cc1 (stereo partly drawn) [Compound 53, (2S,4R)-1-((2S)-2-(8-(4-(((4R)-6-((4-(4-(((4-(((2R)-4-(2-azabicyclo[2.2.1]heptan-2-yl)-1-(phenylthio)butan-2-yl)amino)-3-nitrophenyl)sulfonyl)carbamoyl)phenyl)piperazin-1-yl)methyl)-4′-chloro-4-methyl-2,3,4,5-tetrahydro-[1,1′-biphenyl]-4-yl)methyl)piperazin-1-yl)-8-oxooctanamido)-3,3-dimethylbutanoyl)-4-hydroxy-N—((S)-1-(4-(4-methylthiazol-5-yl)phenyl)ethyl)pyrrolidine-2-carboxamide]	7.00 to 7.70	> 7.70	–
Cc1ncsc1-c1ccc([C@H](C)NC(=O)[C@@H]2C[C@@H](O)CN2C(=O)[C@@H](NC(=O)CCCCC(=O)N2CCN(C3CCN(C[C@]4(C)CCC(c5ccc(Cl)cc5)=C(CN5CCN(c6ccc(C(=O)NS(=O)(=O)c7ccc(N[C@H](CCN8CCCOCC8)CSc8ccccc8)c(S(=O)(=O)C(F)(F)F)c7)cc6)CC5)C4)CC3)CC2)C(C)(C)C)cc1 [Compound 119]	–	–	pIC50 (MOLT-4; [3]): > 7.70; pIC50 (RS4; 11; [4]): > 7.70
Cc1ncsc1-c1ccc([C@H](C)NC(=O)[C@@H]2C[C@@H](O)CN2C(=O)[C@@H](NC(=O)CCCCCCC(=O)N2CCN(C[C@]3(C)CCC(c4ccc(Cl)cc4)=C(CN4CCN(c5ccc(C(=O)NS(=O)(=O)c6ccc(N[C@H](CCN7CCOC(C)C7)CSc7ccccc7)c(S(=O)(=O)C(F)(F)F)c6)cc5)CC4)C3)CC2)C(C)(C)C)cc1 (stereo partly drawn) [Compound 91, (2S,4R)-1-((2S)-2-(8-(4-(((4R)-4′-chloro-4-methyl-6-((4-(4-(((4-(((2R)-4-(2-methylmorpholino)-1-(phenylthio)butan-2-yl)amino)-3-((trifluoromethyl)sulfonyl)phenyl)sulfonyl)carbamoyl)phenyl)piperazin-1-yl)methyl)-2,3,4,5-tetrahydro-[1,1′-biphenyl]-4-yl)methyl)piperazin-1-yl)-8-oxooctanamido)-3,3-dimethylbutanoyl)-4-hydroxy-N—((S)-1-(4-(4-methylthiazol-5-yl)phenyl)ethyl)pyrrolidine-2-carboxamide]	> 7.70	> 7.70	–
CCN(CCO)CC[C@H](CSc1ccccc1)Nc1ccc(S(=O)(=O)NC(=O)c2ccc(N3CCN(CC4=C(c5ccc(Cl)cc5)CCC(C)(CN5CCN(C(=O)CCCCCCC(=O)N[C@H](C(=O)N6C[C@H](O)C[C@H]6C(=O)N[C@@H](C)c6ccc(-c7scnc7C)cc6)C(C)(C)C)CC5)C4)CC3)cc2)cc1[N+](=O)[O-] (stereo partly drawn) [Compound 43, (2S,4R)-1-((2S)-2-(8-(4-((4′-chloro-6-((4-(4-(((4-(((R)-4-(ethyl(2-hydroxyethyl)amino)-1-(phenylthio)butan-2-yl)amino)-3-nitrophenyl)sulfonyl)carbamoyl)phenyl)piperazin-1-yl)methyl)-4-methyl-2,3,4,5-tetrahydro-[1,1′-biphenyl]-4-yl)methyl)piperazin-1-yl)-8-oxooctanamido)-3,3-dimethylbutanoyl)-4-hydroxy-N—((S)-1-(4-(4-methylthiazol-5-yl)phenyl)ethyl)pyrrolidine-2-carboxamide]	7.00 to 7.70	> 7.70	pIC50 (MOLT-4; Table 5, 48 h, read-out: MOLT-4 48 h IC50): 7.11; pIC50 (RS4; 11; Table 5, 48 h, read-out: RS4 48 h IC50): 8.14
Cc1ncsc1-c1ccc([C@H](C)NC(=O)[C@@H]2C[C@@H](O)CN2C(=O)[C@@H](NC(=O)CCCCCNC(=O)c2ccc(CN3CCN(C[C@]4(C)CCC(c5ccc(Cl)cc5)=C(CN5CCN(c6ccc(C(=O)NS(=O)(=O)c7ccc(N[C@H](CCN8CCCOCC8)CSc8ccccc8)c(S(=O)(=O)C(F)(F)F)c7)cc6)CC5)C4)CC3)nc2)C(C)(C)C)cc1 [Compound 80]	> 7.70	> 7.70	–
Cc1ncsc1-c1ccc([C@H](C)NC(=O)[C@@H]2C[C@@H](O)CN2C(=O)[C@@H](NC(=O)CCCCCCC(=O)N2CCN(CC3(C)CCC(c4ccc(Cl)cc4)=C(CN4CCN(c5ccc(C(=O)NS(=O)(=O)c6ccc(N[C@H](CCN(C)C)CSc7ccccc7)c(S(=O)(=O)C(F)(F)F)c6)cc5)CC4)C3)CC2)C(C)(C)C)cc1 (stereo partly shown) [Compound 61]	> 7.70	> 7.70	–
Cc1ncsc1-c1ccc([C@H](C)NC(=O)[C@@H]2C[C@@H](O)CN2C(=O)[C@@H](NC(=O)CCCCC(=O)N2CCC(C3CCN(C[C@]4(C)CCC(c5ccc(Cl)cc5)=C(CN5CCN(c6ccc(C(=O)NS(=O)(=O)c7ccc(N[C@H](CCN8CCCOCC8)CSc8ccccc8)c(S(=O)(=O)C(F)(F)F)c7)cc6)CC5)C4)CC3)CC2)C(C)(C)C)cc1 [Compound 116]	–	–	pIC50 (MOLT-4; [3]): > 7.70; pIC50 (RS4; 11; [4]): > 7.70
Cc1ncsc1-c1ccc([C@H](C)NC(=O)[C@@H]2C[C@@H](O)CN2C(=O)[C@@H](NC(=O)CC2CCN(CC(=O)N3CCN(C[C@]4(C)CCC(c5ccc(Cl)cc5)=C(CN5CCN(c6ccc(C(=O)NS(=O)(=O)c7ccc(N[C@H](CCN8CCCOCC8)CSc8ccccc8)c(S(=O)(=O)C(F)(F)F)c7)cc6)CC5)C4)CC3)CC2)C(C)(C)C)cc1 [Compound 75]	7.00 to 7.70	7.00 to 7.70	–

Continued, in another order:

pIC50 (MOLT-4; [1])	pIC50 (RS4; 11; [2])	SMILES	other results
7.00 to 7.70	–	Cc1ncsc1-c1ccc([C@H](C)NC(=O)[C@@H]2C[C@@H](O)CN2C(=O)[C@@H](NC(=O)CCCCCCC(=O)N2CCN(CC3(C)CCC(c4ccc(Cl)cc4)=C(CN4CCN(c5ccc(C(=O)NS(=O)(=O)c6ccc(N[C@H](CCN(C)C7CCC7)CSc7ccccc7)c([N+](=O)[O-])c6)cc5)CC4)C3)CC2)C(C)(C)C)cc1 (stereo partly drawn) [Compound 36, (2S,4R)-1-((2S)-2-(8-(4-((4′-chloro-6-((4-(4-(((4-(((R)-4-(cyclobutyl(methyl)amino)-1-(phenylthio)butan-2-yl)amino)-3-nitrophenyl)sulfonyl)carbamoyl)phenyl)piperazin-1-yl)methyl)-4-methyl-2,3,4,5-tetrahydro-[1,1′-biphenyl]-4-yl)methyl)piperazin-1-yl)-8-oxooctanamido)-3,3-dimethylbutanoyl)-4-hydroxy-N—((S)-1-(4-(4-methylthiazol-5-yl)phenyl)ethyl)pyrrolidine-2-carboxamide]	Anti-Cancer Activity IC50 (48 hr) RS4; 11 (RS4; 11; Table 2, 48 hr, MTS): ++ ++
> 7.70	7.00 to 7.70	Cc1ncsc1-c1ccc([C@H](C)NC(=O)[C@@H]2C[C@@H](O)CN2C(=O)[C@@H](NC(=O)CCCCCCCNC(=O)c2ccc(N3CCN(C[C@]4(C)CCC(c5ccc(Cl)cc5)=C(CN5CCN(c6ccc(C(=O)NS(=O)(=O)c7ccc(N[C@H](CCN8C[C@H]9C[C@@H]8CO9)CSc8ccccc8)c(S(=O)(=O)C(F)(F)F)c7)cc6)CC5)C4)CC3)nc2)C(C)(C)C)cc1 [Compound 74]	–
